Measured values taken from patent publication US20260034111A1, “NOVEL HETEROCYCLES AS sPLA2-X INHIBITORS” (Cayman Chemical Company Incorporated, priority 2022, published 2026).
Where a name gives a salt, the structure may show the parent alone. Read-outs that look alike come from different tables or passages of the source.

Legend:
Type in all cases: biochemical
[1] = target: T1, recombinant human sPLA2-V enzyme (Homo sapiens, UniProt P39877); experiment: sPLA2-V enzyme inhibition assay (thio-PC substrate, DTNB detection, absorbance 410 nm); conditions: class symbols; read-out: sPLA2 Type V Inhibition (IC50; nM)
T1 construct: made in house; host or cells: E. coli
T1 sequence (P39877 21-138): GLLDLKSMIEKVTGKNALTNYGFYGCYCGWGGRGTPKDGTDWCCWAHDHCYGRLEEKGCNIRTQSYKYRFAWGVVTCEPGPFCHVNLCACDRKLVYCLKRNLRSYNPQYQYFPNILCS
From the text: (§1) Screening Compounds for Inhibition of sPLA2-X, sPLA2-V, and sPLA2-IIA Enzyme Activity
(§2) These sPLA2 enzymes hydrolyze the sn-2 acyl chains of glycerophospholipids, resulting in the release of a free fatty acid and a lysophospholipid. In the case of the thio-PC substrate, this enzymatic hydrolysis results in a free sulfhydryl group remaining on the lysophospholipid. This free sulfhydryl reacts with DTNB to produce the chromogenic product 5-nitro-2-thiobenzoic acid (TNB) which can be quantitated by absorbance at 410 nm. The amount of TNB produced reflects the hydrolytic activity of the enzyme.
(§3) The recombinant human sPLA2 groups IIA, V, and X enzymes were expressed in E. coli and purified to >90% purity by standard biochemical methods.
(§4) Procedure of Enzyme Inhibition for sPLA2-X • 1. […] Dilute the test compounds in 100% DMSO by half-log steps in a 96-well dilution plate using columns 1-11 (one compound per row). Column 12 contains DMSO alone with no compound. • 3. Prepare a 3.5 mM thio-PC substrate solution by drying down 7.2 mg of stock thio-PC in ethanol under a gentle stream of N2 gas. When dry, add 4 mL assay buffer (25 mM Tris, pH7.4; 100 mM KCl; 10 mM CaCl2; 0.1% Triton X-100) and warm in a 37° C. water bath for 20 minutes with intermittent vortexing. • 4. Prepare an “enzyme containing” reaction mix with the following components: 20.4 mL assay buffer; 2 mL DTNB (20 mM in 800 mM Tris, pH8.0); and 11.8 mg recombinant human sPLA2-X enzyme (>95% pure) diluted to a total of 0.8 mL assay buffer. • 5. Prepare a “no enzyme” reaction mix with the following components: 477 μL assay buffer and 45 μL DTNB. • 6. Dispense 58 μL “no enzyme” reaction mix into each of 8 wells (columns 23 and 24, rows M-P). • 7. Dispense 58 μL “enzyme containing” reaction mix into all remaining wells on the plate. • 8. From the 96-well compound dilution plate, add 2 μL from each well for each compound to each of 4 wells with “enzyme containing” reaction mix. Columns 23 and 24 on the assay plate will contain only DMSO (vehicle control). […] After compound addition, mix the contents of each well to ensure that the DMSO is evenly distributed in the well. • 9. Cover the plate and incubate in the dark at room temperature for 15 minutes. • 10. Add 10 μL of thio-PC substrate to all wells. The final concentration of thio-PC in the reactions is 0.5 mM. • 11. Cover the plate and incubate in the dark at room temperature for 30 minutes. • 12. Measure the absorbance of all wells at 410 nm. • 13. Determine the mean absorbance of the “no enzyme” wells. Subtract this value from the absorbance values determined for all other wells (these are now background corrected data). • 14. […] Procedure of Enzyme Inhibition for sPLA2-V • 1. […] Dilute the test compounds in 100% DMSO by half-log steps in a 96-well dilution plate using columns 1-11. Column 12 contains DMSO alone with no compound. • 3. Prepare a 3.5 mM thio-PC substrate solution by drying down 7.2 mg of stock thio-PC in ethanol under a gentle stream of N2 gas. When dry, add 4 mL assay buffer (25 mM Tris, pH7.4; 100 mM KCl; 10 mM CaCl2; 0.1% Triton X-100) and warm in a 37° C. water bath for 20 minutes with intermittent vortexing. • 4. Prepare an “enzyme containing” reaction mix with the following components: 20.4 mL assay buffer; 2 mL DTNB (20 mM in 800 mM Tris, pH8.0); and 12 mg recombinant human sPLA2-V enzyme (>95% pure) diluted to a total of 0.8 mL assay buffer. • 5. Prepare a “no enzyme” reaction mix with the following components: 477 μL assay buffer and […]. • 6. Dispense 58 μL “no enzyme” reaction mix into each of 8 wells (columns 23 and 24, rows M-P). • 7. Dispense 58 μL “enzyme containing” reaction mix into all remaining wells on the plate. • 8. From the 96-well compound dilution plate, add 2 μL from each well for each compound to each of 4 wells with “enzyme containing” reaction mix. Columns 23 and 24 on the assay plate will contain only DMSO (vehicle control).

sPLA2-X protein = target: T2, sPLA2-X protein (Homo sapiens, UniProt O15496); experiment: sPLA2-X enzyme inhibition assay (thio-PC substrate, DTNB detection, absorbance 410 nm); design: made in house; host or cells: E. coli; conditions: class symbols
T2 sequence (O15496 43-165): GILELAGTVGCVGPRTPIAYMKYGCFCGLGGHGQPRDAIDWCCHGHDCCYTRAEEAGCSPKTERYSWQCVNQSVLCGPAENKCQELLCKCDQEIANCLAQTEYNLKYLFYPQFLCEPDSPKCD
From the text: as §1, §2, §3, §4

[2] = target: T3, recombinant human sPLA2-IIA enzyme (Homo sapiens, UniProt P14555); experiment: sPLA2-IIA enzyme inhibition assay (thio-PC substrate, DTNB detection, absorbance 410 nm); conditions: class symbols; read-out: sPLA2 Type IIa Inhibition (IC50; nM)
T3 construct: made in house; host or cells: E. coli
T3 sequence (P14555 21-144): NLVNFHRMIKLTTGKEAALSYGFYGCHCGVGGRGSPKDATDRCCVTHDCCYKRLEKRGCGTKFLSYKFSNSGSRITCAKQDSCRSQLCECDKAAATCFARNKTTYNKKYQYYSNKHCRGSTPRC
From the text: as §1, §2, §3, §4

[3] = read-out: sPLA2 Type X Inhibition (IC50; nM)
[4] = sPLA2 Type X Inhibition (IC50; nM)

Row | SMILES | IC50 [1] | IC50 (sPLA2-X protein; [3]) | IC50 [2] | IC50 (sPLA2-X protein; [4])
1 | NC(=O)c1oc2ccccc2c1-c1cccc(CCC(=O)O)c1 [Compound 25, 3-(3-(2-carbamoylbenzofuran-3-yl)phenyl)propanoic acid] | > 5000 nM | > 200 nM | > 1000 nM | 
2 | NC(=O)c1[se]c2ccc(OC(F)(F)F)cc2c1-c1cccc(CCC(=O)O)c1 [Compound 29, 3-(3-(2-carbamoyl-5-(trifluoromethoxy)benzo[b]selenophen-3-yl)phenyl)propanoic acid] | 1500 to 5000 nM |  | 500 to 1000 nM | 50 to 200 nM
3 | NC(=O)c1cc2ccc(OC(F)(F)F)cc2n1-c1cccc(C2(CC(=O)O)CCC2)c1 [Compound 30, 2-(1-(3-(2-carbamoyl-6-(trifluoromethoxy)-1H-indol-1-yl)phenyl)cyclobutyl)acetic acid] | 1500 to 5000 nM | < 20 nM | > 1000 nM | 
4 | NC(=O)c1cc2ccc(OC(F)(F)F)cc2n1-c1cccc(C2(CC(=O)O)CC2)c1 [Compound 31, 2-(1-(3-(2-carbamoyl-6-(trifluoromethoxy)-1H-indol-1-yl)phenyl)cyclopropyl)acetic acid] | < 500 nM | < 20 nM | > 1000 nM | 
5 | NC(=O)c1[se]c2ccc(OC(F)(F)F)cc2c1-c1cccc(C2(CC(=O)O)CC2)c1 [Compound 34, 2-(1-(3-(2-carbamoyl-5-(trifluoromethoxy)benzo[b]selenophen-3-yl)phenyl)cyclopropyl)acetic acid] | 1500 to 5000 nM |  | > 1000 nM | 20 to 50 nM
6 | NC(=O)c1sc2ccc(OC(F)(F)F)cc2c1-c1cccc(C2(CC(=O)O)CC2)c1 [Compound 36, 2-(1-(3-(2-carbamoyl-5-(trifluoromethoxy)benzo[b]thiophen-3-yl)phenyl)cyclopropyl)acetic acid] | 500 to 1500 nM | < 20 nM | > 1000 nM | 
7 | NC(=O)c1cc2ccc(OC(F)(F)F)cc2n1-c1cccc(CNC(=O)C(F)(F)F)n1 [Compound 37, 1-(6-((2,2,2-trifluoroacetamido)methyl)pyridin-2-yl)-6-(trifluoromethoxy)-1H-indole-2-carboxamide] | > 5000 nM | > 200 nM | > 1000 nM | 
8 | NC(=O)c1cc2ccc(OC(F)(F)F)cc2n1-c1cccc([C@@H](N)CC(=O)O)c1 [Compound 40, (S)-3-amino-3-(3-(2-carbamoyl-6-(trifluoromethoxy)-1H-indol-1-yl)phenyl)propanoic acid] | > 5000 nM | > 200 nM | > 1000 nM | 
9 | N[C@@H](CC(=O)O)c1cccc(-n2c(C(=O)O)cc3ccc(OC(F)(F)F)cc32)c1 [Compound 41, (S)-1-(3-(1-amino-2-carboxyethyl)phenyl)-6-(trifluoromethoxy)-1H-indole-2-carboxylic acid] | > 5000 nM | > 200 nM | > 1000 nM | 
10 | N[C@H](CC(=O)O)c1cccc(-n2c(C(=O)O)cc3ccc(OC(F)(F)F)cc32)c1 [Compound 43, (R)-1-(3-(1-amino-2-carboxyethyl)phenyl)-6-(trifluoromethoxy)-1H-indole-2-carboxylic acid] | > 5000 nM | > 200 nM | > 1000 nM | 
11 | NC(=O)c1cc2ccc(OC(F)(F)F)cc2n1-c1cccc(SCC(=O)O)n1 [Compound 44, 2-((6-(2-carbamoyl-6-(trifluoromethoxy)-1H-indol-1-yl)pyridin-2-yl)thio)acetic acid] | > 5000 nM | < 20 nM | > 1000 nM | 

Further lines, with some results ahead:

Row | IC50 [1] | IC50 (sPLA2-X protein; [3]) | IC50 [2] | SMILES | IC50 (sPLA2-X protein; [4])
12 | > 5000 nM | > 200 nM | > 1000 nM | NC(=O)c1cc2ccc(OC(F)(F)F)cc2n1-c1cccc(C[C@H](N)C(=O)O)c1 [Compound 24, (S)-2-amino-3-(3-(2-carbamoyl-6-(trifluoromethoxy)-1H-indol-1-yl)phenyl)propanoic acid TFA salt] | 
13 | > 5000 nM | > 200 nM | > 1000 nM | CC(C)(C)OC(=O)NCc1cccc(-n2c(C(N)=O)cc3ccc(OC(F)(F)F)cc32)n1 [Compound 26, tert-butyl ((6-(2-carbamoyl-6-(trifluoromethoxy)-1H-indol-1-yl)pyridin-2-yl)methyl)carbamate] | 
14 | > 5000 nM | > 200 nM | > 1000 nM | NCc1cccc(-n2c(C(N)=O)cc3ccc(OC(F)(F)F)cc32)n1 [Compound 27, 1-(6-(aminomethyl)pyridin-2-yl)-6-(trifluoromethoxy)-1H-indole-2-carboxamide TFA salt] | 
15 | > 5000 nM | > 200 nM | > 1000 nM | CC(=O)NCc1cccc(-n2c(C(N)=O)cc3ccc(OC(F)(F)F)cc32)n1 [Compound 32, 1-(6-(acetamidomethyl)pyridin-2-yl)-6-(trifluoromethoxy)-1H-indole-2-carboxamide] | 
16 | > 5000 nM | > 200 nM | > 1000 nM | CS(=O)(=O)NCc1cccc(-n2c(C(N)=O)cc3ccc(OC(F)(F)F)cc32)n1 [Compound 33] | 
17 | > 5000 nM | > 200 nM | > 1000 nM | COC(=O)CC1(c2cccc(-c3c(C(N)=O)sc4ccc(OC(F)(F)F)cc34)c2)CC1 [Compound 35, methyl 2-(1-(3-(2-carbamoyl-5-(trifluoromethoxy)benzo[b]thiophen-3-yl)phenyl)cyclopropyl)acetate] | 
18 | > 5000 nM | > 200 nM | > 1000 nM | O=C(O)c1cc2ccc(OC(F)(F)F)cc2n1-c1cccc(C2(C(=O)O)CC2)n1 [Compound 39, 1-(6-(1-carboxycyclopropyl)pyridin-2-yl)-6-(trifluoromethoxy)-1H-indole-2-carboxylic acid] | 
19 | > 5000 nM | > 200 nM | > 1000 nM | NC(=O)c1cc2ccc(OC(F)(F)F)cc2n1-c1cccc([C@H](N)CC(=O)O)c1 [Compound 42, (R)-3-amino-3-(3-(2-carbamoyl-6-(trifluoromethoxy)-1H-indol-1-yl)phenyl)propanoic acid] | 
20 | > 5000 nM | 20 to 50 nM | > 1000 nM | NC(=O)c1cc2ccc(OC(F)(F)F)cc2n1-c1cccc(S(=O)(=O)CC(=O)O)n1 [Compound 45, 2-((6-(2-carbamoyl-6-(trifluoromethoxy)-1H-indol-1-yl)pyridin-2-yl)sulfonyl)acetic acid] | 
21 | > 5000 nM | 50 to 200 nM | > 1000 nM | NC(=O)c1cc2ccc(OC(F)(F)F)cc2n1-c1cccc(C(F)(F)CO)c1 [Compound 46, 1-(3-(1,1-difluoro-2-hydroxyethyl)phenyl)-6-(trifluoromethoxy)-1H-indole-2-carboxamide] | 
